Source: publication PMC10149936, “Cofilin activation in pancreatic acinar cells plays a pivotal convergent role for mediating CCK-stimulated enzyme secretion and growth” (Frontiers in Physiology, 2023)
No end group written: not given here.

What was measured:
[1] = tested on: cofilin (pS3) in rat pancreatic acini; assay: cofilin activation (phospho-pS3 cofilin Western blot) in isolated rat pancreatic acini; assay type: cell-based; conditions: for decrease of basal phosphorylation levels of cofilin / inhibition of CCK-8-stimulated dephosphorylation of cofilin: LIMK inhibitor 10 µM 3 h; for decrease of basal phosphorylation levels of cofilin / effect on basal phosphorylation level of cofilin / effect on basal phosphorylation of cofilin: no stimulant; for inhibition of CCK-8-stimulated dephosphorylation of cofilin: CCK-8 0.3 or 100 nM 3 min; for effect on cofilin phosphorylation (pS3): 1 min, CCK-8 100 nM, carbachol 1 μM, bombesin 1 nM, secretin 1 nM or VIP 1 nM, n at least 3; for effect on basal phosphorylation level of cofilin / reversal of cofilin dephosphorylation stimulated by CCK-8 and TPA: GFX 5 µM, kbNB 0.1 µM or PP2 10 µM; for effect on basal phosphorylation level of cofilin / reversal of cofilin dephosphorylation stimulated by CCK-8 and TPA / inhibition of dephosphorylation of cofilin stimulated by CCK-8 or TPA: 3 h; for reversal of cofilin dephosphorylation stimulated by CCK-8 and TPA: CCK-8 100 nM 3 min; for reversal of cofilin dephosphorylation stimulated by CCK-8 and TPA / inhibition of dephosphorylation of cofilin stimulated by CCK-8 or TPA: TPA 1 µM 5 min; for reversal of cofilin dephosphorylation by CCK-8: Wortmannin 1 µM, LY294002 100 µM, SB202190 10 µM, U0126 10 µM, Y-27632 10 µM 1 h, SP600125 20 µM 3 h; for reversal of cofilin dephosphorylation by CCK-8 / inhibition of dephosphorylation of cofilin stimulated by CCK-8 or TPA: CCK-8 0.3 and 100 nM 3 min; for inhibition of dephosphorylation of cofilin stimulated by CCK-8 or TPA: PF-3758309 0.1 nM or LCH-7749944 30 µM; for effect on basal phosphorylation of cofilin: SE 50 µM 3 h or D3 25 µM 1 h
Method: (§1) Pancreatic acini preparations were obtained by collagenase digestion as previously described ([Bissonnette et al., 1984]; [Sato et al., 1989]; [Ramos-Alvarez and Jensen, 2018]). After collagenase digestion, dispersed acini were preincubated with different inhibitors in standard incubation solution ([Ramos-Alvarez and Jensen, 2018]; [Ramos-Ãlvarez et al., 2020]) for 3 h at 37°C under conditions specific for PKD/PKC, Src, PI3K, MAPKs, SSH1, LIMK, cofilin, other phosphatases and PAK4 inhibitors, as described previously ([Ramos-Alvarez and Jensen, 2018]; [Ramos-Ãlvarez et al., 2020]). Isolated acini and CCK1-R/Panc-1 cells (M&M 2.2.1) were also preincubated with two SSH1 inhibitors, D3 (25 μM, 1 h) ([Li et al., 2015]) or SE (50 μM, 3 h for acini; 24 h for CCK1-R/Panc-1 cells) ([Lee et al., 2017]). After preincubation, 1 mL aliquots of dispersed acini were incubated at 37°C for 3–15 min with CCK-8 (0.3 nM or 100 nM), for 5–15 min with TPA (1 µM) or without stimulants, used as control. Cells were lysed in lysis buffer (50 mM Tris/HCl pH 7.5, 150 mM NaCl, 1% Triton X-100, 1% deoxycholate, 0.1% sodium azide, 1 mM EGTA, 0.4 mM EDTA, 0.2 mM sodium orthovanadate, 1 mM PMSF, and one protease inhibitor tablet per 10 mL). After sonication, lysates were centrifuged at 10,000×g for 15 min at 4°C and protein concentration was measured using the Bio-Rad protein assay reagent. Finally, cells were processed as below for Western blotting.
(§2) Both concentrations of CCK-8 were used because CCK-8 is reported to have different responses with physiological and supraphysiological concentrations contributing to physiological and pathophysiological processes such as pancreatitis ([Dufresne et al., 2006]).
(§3) Western blotting and immunoprecipitation were performed as described previously ([Ramos-Alvarez and Jensen, 2018]). Whole cell lysates were subjected to SDS-PAGE using 4%–20% Tris–Glycine gels. […] Finally, membranes were then washed again twice in blocking buffer for 4 min, twice in washing buffer for 4 min, incubated for 4 min with chemiluminescence detection reagents. The intensity of the protein bands was measured using GeneTools software from Syngene, which were assessed in the linear detection range.
All experiments were performed at least 3 times. Data are presented as mean ± SEM and were analyzed with the non-parametric Kruskal–Wallis analysis (data was not normally distributed) and the Dunn’s multiple comparison test using the GraphPad Prism 8.0 software. P values < 0.05 were considered significant.
(A) Isolated pancreatic acini were incubated in the absence or presence of CCK-8 (100 nM), carbachol (1 μM), bombesin (1 nM), secretin (1 nM) or VIP (1 nM) for 1 min and then lysed. (B) Isolated pancreatic acini were incubated in the absence or presence of CCK-8 and CCK-JMV (at the indicate concentrations) for 3 min and then lysed. Western blots were analyzed using anti-pS3 cofilin, which mediates the activation state of cofilin. Bands were visualized using chemiluminescence and quantified by densitometry.

[2] = tested on: LIMK (pT508) in pancreatic acini; assay: LIMK phosphorylation (pT508 LIMK Western blot) in isolated rat pancreatic acini; assay type: cell-based; conditions: for decrease of basal levels of LIMK phosphorylation: 10 µM, 3 h preincubation, n at least 4; for decrease of basal levels of LIMK phosphorylation / effect on basal phosphorylation of LIMK: no stimulant; for effect on basal phosphorylation of LIMK: SE 50 µM 3 h or D3 25 µM 1 h
Method: as §1, §2, §3
Isolated pancreatic acini were incubated with either no addition (control), CCK-8 (0.3 and 100 nM) or TPA (1 µM) for the indicated periods of time and then lysed. Western blots were analyzed using anti-pT508 LIMK, anti-pS3 cofilin and anti-pS978 SSH1, which […] the activation states of LIMK, cofilin and SSH1. Bands were visualized using chemiluminescence and quantified by densitometry.

[3] = tested on: cofilin (pS3) in CCK1-R/Panc-1 cells; assay: cofilin activation (pS3 cofilin Western blot) in CCK1-R/Panc-1 cells; assay type: cell-based, human; conditions: CCK-8 0.3 or 100 nM; D3 25 µM 1 h or SE 50 µM 24 h
Method: CCK1 receptor transfected Panc-1 (CCK1-R/Panc-1) cells ([Berna et al., 2009]) and AR42J cells, were cultured in DMEM supplemented with 10% FBS and 1% penicillin/streptomycin and in RPMI supplemented with 10% FBS and 1% penicillin/streptomycin, respectively; and split 1:10 weekly with trypsin/EDTA, after washing in PBS. Finally, cells were seeded in 6-well plate and serum starved overnight, until they were 80% confluent. Cells were incubated at 37°C in 5% CO2/95% air. AR42J cells were treated with 100 nM dexamethasone for 72°h, which stimulates their differentiation into exocrine cells ([Logsdon, 1986]).
Pancreatic acini preparations were obtained by collagenase digestion as previously described ([Bissonnette et al., 1984]; [Sato et al., 1989]; [Ramos-Alvarez and Jensen, 2018]). […] Isolated acini and CCK1-R/Panc-1 cells (M&M 2.2.1) were also preincubated with two SSH1 inhibitors, D3 (25 μM, 1 h) ([Li et al., 2015]) or SE (50 μM, 3 h for acini; 24 h for CCK1-R/Panc-1 cells) ([Lee et al., 2017]). […] After sonication, lysates were centrifuged at 10,000×g for 15 min at 4°C and protein concentration was measured using the Bio-Rad protein assay reagent. […]
Western blotting and immunoprecipitation were performed as described previously ([Ramos-Alvarez and Jensen, 2018]). […] The intensity of the protein bands was measured using GeneTools software from Syngene, which were assessed in the linear detection range. […]
FIGURE 3 Effect of two SSH1 inhibitors, D3 and SE (A–C), or SSH1 siRNA (D), on the ability of CCK-8 (0.3 and 100 nM) to activate LIMK and cofilin in pancreatic acini (A/B) and activate cofilin in CCK1-R/Panc-1 cells (C/D). […] Western blots were analyzed using anti-pS3 cofilin and anti-pT508 […], and the knockdown effect of SSH1 was confirmed by Western blots using SSH1 (C-term) antibody. Bands were visualized using chemiluminescence and quantified by densitometry. […] Results are expressed as % of basal stimulation of the control group. *, p < 0.05 compared to the control group; ∞, p < 0.05 compared to stimulants without inhibitors. […]

[4] = inhibitor 10 µM 3 h, CCK-8 0.3 or 100 nM 3 min
[5] = Rattus norvegicus, CCK-8 0.3 or 100 nM, 5 min, SE 50 µM 3 h or D3 25 µM 1 h preincubation, n at least 4, read-out: inhibition of CCK-8-caused cofilin dephosphorylation
[6] = Rattus norvegicus, CCK-8 0.3 or 100 nM, 5 min, SE 50 µM 3 h or D3 25 µM 1 h preincubation, read-out: inhibition of CCK-8's dephosphorylation of LIMK

## Cc1c[nH]c2ncnc(-c3ccc(NC(=O)N(CCO)c4ccccc4)cc3)c12 [SR7826]
[1]
  decrease of basal phosphorylation levels of cofilin: 67%
  inhibition of CCK-8-stimulated dephosphorylation of cofilin: did not inhibit
[2]
  decrease of basal levels of LIMK phosphorylation: 33%
[2]; [4]
  increase in LIMK phosphorylation with CCK-8 stimulation: 80%
  inhibition of LIMK dephosphorylation caused by CCK-8: completely inhibited

## VIP: pancreatic acinar secretagogue (HSDAVFTDNYTRLRKQMAVKKYLNSILN; ends and bridges not checked; UniProt P01282 125-152, looked up)
[1]
  effect on cofilin phosphorylation (pS3): rapidly decreased cofilin phosphorylation

## KbNB142-70
[1]
  effect on basal phosphorylation level of cofilin: None of these inhibitors altered the basal phosphorylation level of cofilin
  reversal of cofilin dephosphorylation stimulated by CCK-8 and TPA: completely reversed

## COC[C@H]1OC(=O)c2coc3c2[C@@]1(C)C1=C(C3=O)[C@@H]2CCC(=O)[C@@]2(C)C[C@H]1OC(C)=O [Wortmannin]
[1]
  reversal of cofilin dephosphorylation by CCK-8: not PI3K or p38

## CC(C)(C)n1nc(-c2ccc(Cl)cc2)c2c(N)ncnc21 [PP2]
[1]
  effect on basal phosphorylation level of cofilin: None of these inhibitors altered the basal phosphorylation level of cofilin
  reversal of cofilin dephosphorylation stimulated by CCK-8 and TPA: completely reversed

## secretin
[1]
  effect on cofilin phosphorylation (pS3): rapidly decreased cofilin phosphorylation

## COc1cccc(Nc2nc(NCC3CCCO3)c3ccccc3n2)c1 (centres unmarked) [LCH-7749944, N2-(3-methoxyphenyl)-N4-[(oxolan-2-yl)methyl]quinazoline-2,4-diamine]
[1]
  inhibition of dephosphorylation of cofilin stimulated by CCK-8 or TPA: completely inhibited

## O=c1cc(N2CCOCC2)oc2c(-c3ccccc3)cccc12 [LY294002]
[1]
  reversal of cofilin dephosphorylation by CCK-8: not PI3K or p38

## CC(C)C(=O)Nc1ncc(-c2cc(C(F)F)nn2-c2c(Cl)cccc2Cl)s1 [LIMKi3]
[1]
  decrease of basal phosphorylation levels of cofilin: 39%
  inhibition of CCK-8-stimulated dephosphorylation of cofilin: did not inhibit
[2]
  decrease of basal levels of LIMK phosphorylation: 33%
[2]; [4]
  inhibition of LIMK dephosphorylation caused by CCK-8: completely inhibited

## Cc1ccccc1N1C(=O)/C(=C/c2ccc(OCc3ccc(C(=O)O)cc3)cc2)SC1=S [D3, (Z)-4-((4-((4-oxo-2-thioxo-3-(o-tolyl)thiazolidin-5-ylidene)methyl)phenoxy)methyl)benzoic acid]
[1]; [5]
  inhibition at 25 µM: 32 to 49%
[1]
  effect on basal phosphorylation of cofilin: Neither D3 nor SE affected the basal phosphorylation of LIMK or cofilin
[3]
  inhibition of CCK-8-induced dephosphorylation of cofilin: completely inhibited
[2]; [6]
  inhibition at 25 µM: 20%
[2]
  effect on basal phosphorylation of LIMK: Neither D3 nor SE affected the basal phosphorylation of LIMK or cofilin

## bombesin
[1]
  effect on cofilin phosphorylation (pS3): rapidly decreased cofilin phosphorylation

## C[C@@H](N)[C@H]1CC[C@H](C(=O)Nc2ccncc2)CC1 [Y-27632]
[1]
  reversal of cofilin dephosphorylation by CCK-8: completely reversed

## Cc1nc(Nc2[nH]nc3c2CN(C(=O)N[C@H](CN(C)C)c2ccccc2)C3(C)C)c2sccc2n1 [PF-3758309]
[1]
  inhibition of dephosphorylation of cofilin stimulated by CCK-8 or TPA: completely inhibited

## C[N+](C)(C)CCOC(N)=O [carbachol]
[1]
  effect on cofilin phosphorylation (pS3): rapidly decreased cofilin phosphorylation

## O=C(O)c1cc(O)c2c(c1)[C@H]([C@H]1c3cc(C(=O)O)cc(O)c3C(=O)c3c(O[C@@H]4O[C@H](CO)[C@@H](O)[C@H](O)[C@H]4O)cccc31)c1cccc(O[C@@H]3O[C@H](CO)[C@@H](O)[C@H](O)[C@H]3O)c1C2=O [SE, Sennoside A]
[1]; [5]
  inhibition at 50 µM: 30 to 33%
[1]
  effect on basal phosphorylation of cofilin: Neither D3 nor SE affected the basal phosphorylation of LIMK or cofilin
[3]
  inhibition of CCK-8-induced dephosphorylation of cofilin: completely inhibited
[2]; [6]
  inhibition at 50 µM: 20%
[2]
  effect on basal phosphorylation of LIMK: Neither D3 nor SE affected the basal phosphorylation of LIMK or cofilin
